Assay results reported in PubChem BioAssay AID192 (DTP/NCI, 2004).
Where “and” joins values, the source holds several entries; their conditions need not be identical. Equal entries are not always repeated. Inconclusive results and toxic doses are left out.

System: BDF1 mice, B16 melanoma ip, median survival T/C
Assay: NCI In Vivo Anticancer Drug Screen. Data for tumor model B16 Melanoma (intraperitoneal) in B6D2F1 (BDF1) mice
Conditions: endpoint: median survival time, higher = longer survival
Procedure, shortened: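 Survival or tumor size is measured after treatment of tumor-bearing mice and normalised to the vehicle-treated control group.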

[1] = dose: 3.12 mg/kg/injection, schedule: Q01DX009 (ip), vehicle: saline
[2] = dose: 6.25 mg/kg/injection, schedule: Q01DX009 (ip), vehicle: saline
[3] = dose: 12.5 mg/kg/injection, schedule: Q01DX009 (ip), vehicle: saline
[4] = dose: 25.0 mg/kg/injection, schedule: Q01DX009 (ip), vehicle: saline
[5] = dose: 100.0 mg/kg/injection, schedule: Q01DX009 (ip), vehicle: saline with Tween-80
[6] = dose: 200.0 mg/kg/injection, schedule: Q01DX009 (ip), vehicle: saline with Tween-80
[7] = dose: 100.0 mg/kg/injection, schedule: Q01DX009 (ip), vehicle: Klucel (hydroxypropylcellulose) (HPC)
[8] = dose: 200.0 mg/kg/injection, schedule: Q01DX009 (ip), vehicle: Klucel (hydroxypropylcellulose) (HPC)
[9] = dose: 100.0 mg/kg/injection, schedule: Q01DX009 (ip), vehicle: saline
[10] = dose: 200.0 mg/kg/injection, schedule: Q01DX009 (ip), vehicle: saline
[11] = dose: 25.0 mg/kg/injection, schedule: Q01DX009 (ip), vehicle: saline with Tween-80
[12] = dose: 50.0 mg/kg/injection, schedule: Q01DX009 (ip), vehicle: saline with Tween-80
[13] = dose: 50.0 mg/kg/injection, schedule: Q01DX009 (ip), vehicle: saline
[14] = dose: 100.0 mg/kg/injection, schedule: Q04DX003 (ip), vehicle: Klucel (hydroxypropylcellulose) (HPC)
[15] = dose: 400.0 mg/kg/injection, schedule: Q01DX009 (ip), vehicle: saline
[16] = dose: 400.0 mg/kg/injection, schedule: Q01DX009 (ip), vehicle: Klucel (hydroxypropylcellulose) (HPC)
[17] = dose: 25.0 mg/kg/injection, schedule: Q01DX009 (ip), vehicle: Klucel (hydroxypropylcellulose) (HPC)
[18] = dose: 50.0 mg/kg/injection, schedule: Q01DX009 (ip), vehicle: Klucel (hydroxypropylcellulose) (HPC)
[19] = dose: 200.0 mg/kg/injection, schedule: Q04DX003 (ip), vehicle: Klucel (hydroxypropylcellulose) (HPC)
[20] = dose: 400.0 mg/kg/injection, schedule: Q04DX003 (ip), vehicle: Klucel (hydroxypropylcellulose) (HPC)

Structure (SMILES): NC1CC1c1ccccc1 (configuration not stated)
- T/C [1]: 91 % of control
- T/C [2]: 101 % of control
- T/C [3]: 102 % of control
- T/C [4]: 113 % of control

Structure (SMILES): Cn1c(=O)c2[nH]c(Cc3cccc(O)c3)nc2n(C)c1=O
- T/C (dose: 3.12 mg/kg/injection, schedule: Q01DX009 (ip), vehicle: suspension in saline): 94 % of control
- T/C (dose: 6.25 mg/kg/injection, schedule: Q01DX009 (ip), vehicle: suspension in saline): 96 % of control
- T/C (dose: 100.0 mg/kg/injection, schedule: Q01DX009 (ip), vehicle: suspension in saline): 94 % of control

Structure (SMILES): CC(=O)OCC(COC(C)=O)(COC(C)=O)COC(C)=O
- T/C [5]: 105 % of control
- T/C [6]: 105 % of control
- T/C (dose: 400.0 mg/kg/injection, schedule: Q01DX009 (ip), vehicle: saline with Tween-80): 100 % of control

Structure (SMILES): CCCCCCCC(=O)CCC
- T/C [7]: 105 % of control
- T/C [8]: 96 % of control

Structure (SMILES): CCCCCCCCCCCCc1ccc(CS)cc1
- T/C [9]: 92 % of control
- T/C [10]: 89 % of control

Structure (SMILES): N#CC1CCCC[N-]1.[NH-]CC[N-]CC[NH-].[Pt+4] (configuration not stated)
- T/C [2]: 113 % of control
- T/C [3]: 108 % of control
- T/C [4]: 91 % of control

Structure (SMILES): O=c1oc(/C=C/c2ccccc2)nc2cc(Cl)ccc12
- T/C [7]: 109 % of control

Structure (SMILES): CC(=O)OC1C(OC(C)=O)C2C(C)CC3OC(=O)C(C)C3CC2(C)C1OC(C)=O (configuration not stated)
- T/C [11]: 111 % of control
- T/C [12]: 110 % of control
- T/C [5]: 106 % of control

Structure (SMILES): CC(Cc1ccc2c(c1)OCO2)C(C)Cc1ccc2c(c1)OCO2 (configuration not stated)
- T/C (dose: 100.0 mg/kg/injection, schedule: Q01DX009 (ip), vehicle: other): 94 % of control
- T/C (dose: 200.0 mg/kg/injection, schedule: Q01DX009 (ip), vehicle: other): 89 % of control
- T/C (dose: 400.0 mg/kg/injection, schedule: Q01DX009 (ip), vehicle: other): 89 % of control

Structure (SMILES): C[N+](C)(C)c1nc(N)nc2c1ncn2C1OC(CO)C(O)C1O (configuration not stated)
- T/C [13]: 106 % of control
- T/C [9]: 103 % of control
- T/C [10]: 109 % of control

Structure (SMILES): C[n+]1cccc(NC(=O)c2ccc(NC(=O)c3ccc(C(=O)Nc4ccc(NC(=N)N)cc4)cc3)cc2)c1
- T/C (dose: 0.9 mg/kg/injection, schedule: Q01DX009 (ip), vehicle: saline): 102 % of control
- T/C (dose: 1.3 mg/kg/injection, schedule: Q01DX009 (ip), vehicle: saline): 94 % of control
- T/C (dose: 2.0 mg/kg/injection, schedule: Q01DX009 (ip), vehicle: saline): 116 % of control

Structure (SMILES): COc1cc(Cc2nccc3cc(OC)c(OC)cc23)c(C(C)=O)cc1OC
- T/C [1]: 93 % of control
- T/C [2]: 102 % of control
- T/C [3]: 97 % of control
- T/C [4]: 103 % of control
- T/C [13]: 100 % of control

Structure (SMILES): C[N+](C)(C)C
- T/C (dose: 0.37 mg/kg/injection, schedule: Q01DX009 (ip), vehicle: saline): 112 % of control
- T/C (dose: 1.5 mg/kg/injection, schedule: Q01DX009 (ip), vehicle: saline): 109 % of control
- T/C [3]: 95 % of control

Structure (SMILES): CCOC(=O)C(Br)C(=O)OCC
- T/C (dose: 0.58 mg/kg/injection, schedule: Q04DX003 (ip), vehicle: saline): 97 % of control
- T/C (dose: 1.17 mg/kg/injection, schedule: Q04DX003 (ip), vehicle: saline): 100 % of control
- T/C (dose: 2.34 mg/kg/injection, schedule: Q04DX003 (ip), vehicle: saline): 97 % of control
- T/C (dose: 4.68 mg/kg/injection, schedule: Q04DX003 (ip), vehicle: saline): 93 % of control

Structure (SMILES): CC(=O)NNC(=O)c1ccccn1
- T/C [11]: 87 % of control
- T/C (dose: 25.0 mg/kg/injection, schedule: Q01DX009 (ip), vehicle: water): 93 % of control and 116 % of control
- T/C (dose: 50.0 mg/kg/injection, schedule: Q01DX009 (ip), vehicle: water): 110 % of control and 113 % of control
- T/C (dose: 100.0 mg/kg/injection, schedule: Q01DX009 (ip), vehicle: water): 93 % of control and 100 % of control
- T/C [6]: 89 % of control

Structure (SMILES): CCCCCCCCCCCCCCCC#N
- T/C (dose: 25.0 mg/kg/injection, schedule: Q04DX003 (ip), vehicle: Klucel (hydroxypropylcellulose) (HPC)): 99 % of control
- T/C (dose: 50.0 mg/kg/injection, schedule: Q04DX003 (ip), vehicle: Klucel (hydroxypropylcellulose) (HPC)): 96 % of control
- T/C [14]: 92 % of control

Structure (SMILES): CN(C)CCCC(=O)O
- T/C [9]: 98 % of control
- T/C [10]: 96 % of control
- T/C [15]: 93 % of control

Structure (SMILES): S=C=NCCCCCCCCCCCCN=C=S
- T/C (dose: 3.12 mg/kg/injection, schedule: Q01DX009 (ip), vehicle: saline with Tween-80): 99 % of control
- T/C (dose: 6.25 mg/kg/injection, schedule: Q01DX009 (ip), vehicle: saline with Tween-80): 86 % of control
- T/C (dose: 12.5 mg/kg/injection, schedule: Q01DX009 (ip), vehicle: saline with Tween-80): 98 % of control

Structure (SMILES): Cc1cccc(C)c1N1C(=O)CCC1=O
- T/C [7]: 101 % of control
- T/C [8]: 95 % of control
- T/C [16]: 102 % of control

Structure (SMILES): CC(C)C(N)C(=O)Nc1nncs1 (configuration not stated)
- T/C [3]: 103 % of control
- T/C [4]: 114 % of control
- T/C [13]: 108 % of control
- T/C [9]: 102 % of control

Structure (SMILES): Nc1nc(-c2ccccc2N=NN2CCCC2)nc2ccccc12
- T/C [17]: 95 % of control
- T/C [18]: 94 % of control

Structure (SMILES): C[Si](C)(C)c1c(F)c(F)cc(F)c1F
- T/C [14]: 98 % of control
- T/C [19]: 97 % of control
- T/C [20]: 97 % of control

Structure (SMILES): C[Si](C)(C)c1cc(F)c(F)c(F)c1F
- T/C [14]: 90 % of control
- T/C [19]: 92 % of control
- T/C [20]: 94 % of control

Structure (SMILES): C1=NC(c2ccccn2)=NNC(c2ccccn2)=C1c1ccccc1
- T/C [17]: 100 % of control
- T/C [18]: 101 % of control
- T/C [7]: 86 % of control

Structure (SMILES): COc1cc2c(cc1OC)C1=CC(=O)N3CCCC34OS(=O)OC14CC2 (configuration not stated)
- T/C [7]: 110 % of control
- T/C [8]: 103 % of control
- T/C [16]: 101 % of control

Structure (SMILES): COCCOC(=O)CCCCC(=O)OCCOC
- T/C [9]: 118 % of control
- T/C [10]: 106 % of control
- T/C [15]: 114 % of control

Structure (SMILES): C=C(C)/C([O-])=N/[N+](C)(C)CC(O)CCCCCCCCCCCC (configuration not stated)
- T/C (dose: 25.0 mg/kg/injection, schedule: Q01DX001 (ip), vehicle: saline): 91 % of control
- T/C (dose: 50.0 mg/kg/injection, schedule: Q01DX001 (ip), vehicle: saline): 95 % of control

Structure (SMILES): C=CCNc1ccc(OC)cc1
- T/C [12]: 95 % of control
- T/C [5]: 107 % of control

Structure (SMILES): CCOc1ccc(NC(=O)c2ccccc2Cl)cc1
- T/C [7]: 93 % of control
- T/C [8]: 112 % of control
- T/C [16]: 93 % of control

Structure (SMILES): CCC1CC2CN(CCc3c([nH]c4ccccc34)C(C(=O)OC)(c3cc4c(cc3OC)N(C)C3C(O)(C(=O)OC)C(OC(C)=O)C5(CC)C=CCN6CCC43C65)C2)C1 (configuration not stated)
- T/C (dose: 0.05 mg/kg/injection, schedule: Q01DX009 (ip), vehicle: Klucel (hydroxypropylcellulose) (HPC)): 111 % of control
- T/C (dose: 0.06 mg/kg/injection, schedule: Q01DX009 (ip), vehicle: water): 109 % of control and 110 % of control
- T/C (dose: 0.13 mg/kg/injection, schedule: Q01DX009 (ip), vehicle: water): 105 % of control and 114 % of control
- T/C (dose: 0.25 mg/kg/injection, schedule: Q01DX009 (ip), vehicle: water): 173 % of control
- T/C (dose: 0.4 mg/kg/injection, schedule: Q01DX009 (ip), vehicle: Klucel (hydroxypropylcellulose) (HPC)): 192 % of control
- T/C (dose: 0.5 mg/kg/injection, schedule: Q01DX009 (ip), vehicle: water): 210 % of control
- T/C (dose: 0.5 mg/kg/injection, schedule: Q04DX003 (ip), vehicle: water): 166 % of control
- T/C (dose: 0.8 mg/kg/injection, schedule: Q01DX009 (ip), vehicle: Klucel (hydroxypropylcellulose) (HPC)): 224 % of control
- T/C (dose: 1.0 mg/kg/injection, schedule: Q01DX009 (ip), vehicle: water): 151 % of control and 163 % of control and 174 % of control
- T/C (dose: 1.0 mg/kg/injection, schedule: Q04DX003 (ip), vehicle: water): 206 % of control
- T/C (dose: 1.6 mg/kg/injection, schedule: Q01DX009 (ip), vehicle: Klucel (hydroxypropylcellulose) (HPC)): 229 % of control
- T/C (dose: 2.0 mg/kg/injection, schedule: Q01DX009 (ip), vehicle: water): 170 % of control and 178 % of control
- T/C (dose: 2.0 mg/kg/injection, schedule: Q04DX003 (ip), vehicle: water): 234 % of control

Structure (SMILES): CCCCOC(=O)C(C)OC(=O)CCC (configuration not stated)
- T/C [17]: 112 % of control
- T/C [18]: 108 % of control
- T/C [7]: 104 % of control
- T/C [8]: 122 % of control

Structure (SMILES): O=C(OC1C=CC2CCC1C2)c1ccc([N+](=O)[O-])cc1 (configuration not stated)
- T/C [12]: 91 % of control
- T/C [5]: 96 % of control
- T/C [6]: 93 % of control
